Reference: patent publication US7053116B2, “Methods for protecting cells from amyloid toxicity and for inhibiting amyloid protein production” (The Salk Institute for Biological Studies, priority 2000, dated 2006)
Read-outs that look alike come from different tables or passages of the source. No end group written: not given here.

What was measured:
[1] = tested on: Aβ-induced MTT formazan exocytosis; test: Blocking of Aβ-induced MTT formazan exocytosis by amyloid-binding agents; assay type: cell-based
Method: MTT formazan exocytosis is assessed by microscopic observation. The needle-like crystals on the surface of the cells incubated with MTT, which are easily visible under a light microscope, represent exocytosed MTT formazan (Liu et al. (1997) J. Neurochem. 69:581–593). The percentages of cells exocytosing MTT formazan were determined by counting 300 cells in multiple fields using the presence of needle-like formazan crystals on cell surface as an indicator of MTT formazan exocytosis. A cell is counted as exocytosing MTT formazan when several needle-like formazan crystals are clearly visible.
The involvement of β-sheeted amyloid fibrils in generating this phenomenon is supported by the observation that amyloid-binding agents such as Congo red block 90% of the Aβ-induced MTT formazan exocytosis. Under denaturing conditions, non-amyloidogenic proteins such as insulin and glucagon also form protein fibrils with the same cross β structure as that in amyloid fibrils (Glenner et al., J. Histochem. Cytochem. 22:1141–1158 (1974) and Burke et al. Biochem. 11:2435–2439 (1972)). […] Therefore, the ability to enhance cellular MTT formazan exocytosis is a common property of protein fibrils having a cross β-pleated sheet structure. […]

[2] = tested on: B12 cells; conditions: for ability to induce MTT formazan exocytosis (in words): peptide preparations
Method: MTT reduction and MTT formazan exocytosis MTT reduction by cultured cells was performed in 96-well microtiter plates containing 100 μl of medium per well. Cells (about 10^4 cells per well) were plated in Dulbecco's modified Eagles's medium (DMEM) supplemented with 5% dialyzed fetal calf serum and incubated overnight before drug treatment. MTT reduction was started by adding 10 μl per well of a 2.5 mg/ml MTT stock in phosphate-buffered saline (PBS) and terminated by adding 100 μl of a solubilization solution containing 50% N,N′-dimethylformamide and 20% sodium dodecyl sulfate (SDS; pH 4.8). […] MTT reduction is determined the next day by determining absorbance at 570 nm with an automatic microtiter plate reader, using 630 nm as the reference wavelength.
MTT reduction by living cells is initially observed as intracellular formazan granules, and needle-like formazan crystals begin to appear on the cell surface after about 30 min of MTT reduction.
Amyloid peptide-induced MTT formazan exocytosis was determined with B12 cells, as described herein. B12 cells on 35 mm dishes were treated with 10 μM for 16 hr at 37° C., followed by 30 min MTT reduction. The percentage of cells exocytosing MTT formazan with morphology similar to that induced by Aβ was then determined.

[3] = tested on: Hippocampal neurons; test: Hippocampal neuronal cultures, assessment of neuronal viability
Method: (§1) The cells were suspended in a serum-free medium and plated on polylysine-coated 24-well tissue culture plates (1×10^6 cells/ml). The serum-free medium used is a modified minimal essential medium containing 30 mM glucose, 2 mM glutamine, 1 mM pyruvate, penicillin (100 U/ml), streptomycin (100 μg/ml), and N1supplements (Sigma). After 3 days in culture, the neurons acquire long and extensively branched neurites. Half of the medium in each dish was then replaced with fresh medium, and test reagents (20 μM peptide solutions) were added. Neuron survival was assessed 48 hours after treatment. Neurons were judged to be viable by the intactness of their neurites and soma (absence of vacuoles and the ability to exclude trypan blue). Five fields (˜80 neurons/field) were scored in each culture. The number of viable neurons in untreated cultures was designated as 100% survival.

[4] = tested on: Primary astrocytes; test: Astrocyte culture, quantitation of secreted cytokines (ELISA); assay type: cell-based, rat; conditions: astrocyte conditioned media; 10 μM peptide for 12 hr; mean ±S.E.M.
Method: Astrocyte culture and quantitation of secreted cytokines Primary astrocytes were prepared from the cortices of 2-day-old Sprague-Dawley rat pups according the method of Levison and McCarthy (Culturing Nerve Cells in: G. Banker, and K. Goslin (eds.), MIT Press, Cambridge, Mass. 1991, pp. 309–336). The dissected cortices were dissociated enzymatically with trypsin and mechanically by passing through a fine pipette. The cells were cultured in α-MEM (Life Technologies, MD) containing 10% fetal bovine serum and antibiotics. After 11 days in culture, the primary cells were replated at a density of 10,000 cells/cm^2 and grown until confluent. At least 24 hr before treatment, the cells were washed twice with PBS and then incubated with serum-free α-MEM containing N2 supplements (Life Technologies, MD).
Cytokine Measurements For IL-1β and TNF-α measurements, 7.5×10^4 cells/well were plated in a 48-well tissue culture plate. After 48 hr of incubation in serum-free α-MEM containing N2 supplements, the cells were treated with 10 μM of various amyloid or non-amyloidogenic peptides for 12 hr. Conditioned media from duplicate wells for each sample were collected and stored at −80° C. until use. Cytokine levels in the conditioned media were determined by ELISA kits from R&D systems and performed according to the manufacturer's protocols.

[5] = tested on: astrocytes; test: Astrocyte activation indicated by morphological changes; assay type: cell-based, rat; conditions: peptide preparations
Method: The dissected cortices were dissociated enzymatically with trypsin and mechanically by passing through a fine pipette. The cells were cultured in α-MEM (Life Technologies, MD) containing 10% fetal bovine serum and antibiotics. After 11 days in culture, the primary cells were replated at a density of 10,000 cells/cm^2 and grown until confluent. At least 24 hr before treatment, the cells were washed twice with PBS and then incubated with serum-free α-MEM containing N2 supplements (Life Technologies, MD).

[6] = tested on: Hippocampal neurons
Method: as §1

[7] = tested on: B12 cells; conditions: cited from earlier work; for enhancement of MTT formazan exocytosis: B12 cells, Liu and Schubert 1997; for induction of MTT formazan exocytosis by protein fibrils: fibrils formed under denaturing conditions, Liu and Schubert 1998

Nc1c(/N=N/c2ccc(-c3ccc(/N=N/c4cc(S(=O)(=O)O)c5ccccc5c4N)cc3)cc2)cc(S(=O)(=O)O)c2ccccc12 [Congo red]
block of the Aβ-induced MTT formazan exocytosis [1]: 90%

CC[C@H](C)[C@H](NC(=O)[C@H](C)NC(=O)CNC(=O)[C@H](Cc1ccccc1)NC(=O)[C@H](CC(N)=O)NC(=O)[C@H](CC(N)=O)NC(=O)[C@H](CO)NC(=O)[C@H](CO)NC(=O)[C@H](Cc1c[nH]cn1)NC(=O)[C@@H](NC(=O)[C@H](CC(C)C)NC(=O)[C@H](Cc1ccccc1)NC(=O)[C@H](CC(N)=O)NC(=O)[C@H](C)NC(=O)[C@H](CC(C)C)NC(=O)[C@H](CCCNC(=N)N)NC(=O)[C@H](CCC(N)=O)NC(=O)[C@@H](NC(=O)[C@H](C)NC(=O)[C@@H]1CSSC[C@H](NC(=O)[C@@H](N)CCCCN)C(=O)N[C@@H](CC(N)=O)C(=O)N[C@@H]([C@@H](C)O)C(=O)N[C@@H](C)C(=O)N[C@@H]([C@@H](C)O)C(=O)N1)[C@@H](C)O)C(C)C)C(=O)N[C@@H](CC(C)C)C(=O)N[C@@H](CO)C(=O)N[C@@H](CO)C(=O)N[C@H](C(=O)N[C@@H](CC(N)=O)C(=O)N[C@H](C(=O)NCC(=O)N[C@@H](CO)C(=O)N[C@@H](CC(N)=O)C(=O)N[C@H](C(=O)N[C@@H](Cc1ccc(O)cc1)C(N)=O)[C@@H](C)O)C(C)C)[C@@H](C)O [Human amylin]
MTT (%) ([2]; percentage of B12 cells exocytosing MTT formazan, 10 μM for 16 hr at 37° C., followed by 30 min MTT reduction, mean ±S.E.M.): 97 ± 1 %
neurotoxicity to rat hippocampal neurons (in words) ([3]; peptide preparations): kill rat hippocampal neurons
Viable Neurons (% of control) ([3]; rat hippocampal neurons, 20 μM peptide solutions, 48 hours after treatment, mean ±S.E.M.): 32 ± 7 % of control

CC(C)C[C@H](NC(=O)[C@H](CC(N)=O)NC(=O)[C@H](CC(N)=O)NC(=O)[C@H](CO)NC(=O)[C@H](CO)NC(=O)[C@H](CCCNC(=N)N)NC(=O)[C@@H](NC(=O)[C@H](CC(C)C)NC(=O)[C@H](Cc1ccccc1)NC(=O)[C@H](CC(N)=O)NC(=O)[C@H](C)NC(=O)[C@H](CC(C)C)NC(=O)[C@H](CCCNC(=N)N)NC(=O)[C@H](CCC(N)=O)NC(=O)[C@@H](NC(=O)[C@H](C)NC(=O)[C@@H]1CSSC[C@H](NC(=O)[C@@H](N)CCCCN)C(=O)N[C@@H](CC(N)=O)C(=O)N[C@@H]([C@@H](C)O)C(=O)N[C@@H](C)C(=O)N[C@@H]([C@@H](C)O)C(=O)N1)[C@@H](C)O)C(C)C)C(=O)NCC(=O)N1CCC[C@H]1C(=O)N[C@H](C(=O)N[C@@H](CC(C)C)C(=O)N1CCC[C@H]1C(=O)N1CCC[C@H]1C(=O)N[C@H](C(=O)N[C@@H](CC(N)=O)C(=O)N[C@H](C(=O)NCC(=O)N[C@@H](CO)C(=O)N[C@@H](CC(N)=O)C(=O)N[C@H](C(=O)N[C@@H](Cc1ccc(O)cc1)C(N)=O)[C@@H](C)O)C(C)C)[C@@H](C)O)C(C)C [Rat amylin]
IL-1β [4]: 46 ± 7 pg/mL
TNF-α [4]: 48 ± 8 pg/mL
astrocyte activation as indicated by the morphological changes of the astrocytes (in words) [5]: not active
ability to induce MTT formazan exocytosis (in words) [2]: not active
neurotoxicity to rat hippocampal neurons (in words) [6]: not active
enhancement of MTT formazan exocytosis [7]: do not enhance

Aβ1-28: nonfibrillogenic peptide
enhancement of MTT formazan exocytosis [7]: do not enhance

Aβ1-40: amyloid beta 1-40, 40 amino acid form of amyloid beta peptide; lot not specified
ability to induce MTT formazan exocytosis (in words) [2]: variable among different manufacturer's lots
enhancement of MTT formazan exocytosis [7]: dramatically enhance

Aβ17-40: nonfibrillogenic peptide (LVFFAEDVGSNKGAIIGLMVGGVV; Amyloid-beta protein 40; UniProt P05067 688-711, looked up, fragment)
enhancement of MTT formazan exocytosis [7]: do not enhance

GSNKGAIIGLM [Aβ25–35]
IL-1β [4]: 754 ± 78 pg/mL
TNF-α [4]: 350 ± 46 pg/mL
ability to induce MTT formazan exocytosis (in words) [2]: always active
enhancement of MTT formazan exocytosis [7]: dramatically enhance

glucagon: non-amyloidogenic protein forming fibrils with cross β structure under denaturing conditions
induction of MTT formazan exocytosis by protein fibrils [7]: induce MTT formazan exocytosis

insulin: non-amyloidogenic protein forming fibrils with cross β structure under denaturing conditions
induction of MTT formazan exocytosis by protein fibrils [7]: induce MTT formazan exocytosis
